Values after ≈ are worked out from the molar mass of the structure shown.
How the values were obtained:
Test in all cases: Agar dilution MIC in DST agar (Ericsson and Sherris)
Assay type in all cases: cell-based
[1] = test system: Escherichia coli 2018; conditions: for MIC: Escherichia coli, 2018, in vitro, read-out: MIC Esch. 2018; for MIC Esch. 2018: in vitro
Outline: (§1)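 In vitro antibiotic activity was measured by serial dilution of test compounds in agar. The MIC is the lowest concentration at which growth of the test organism is still inhibited, expressed in µg/ml.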

[2] = test system: Escherichia coli 205; conditions: for MIC: Escherichia coli, 205, in vitro, read-out: MIC Esch. 205; for MIC Esch. 205: in vitro
Outline: as §1

[3] = test system: Proteus morganii 1518; conditions: for MIC: Morganella morganii, 1518, in vitro, read-out: MIC Prot. 1518; for MIC Prot. 1518: in vitro
Outline: as §1

[4] = test system: Proteus morganii 2359; conditions: for MIC: Morganella morganii, 2359, in vitro, read-out: MIC Prot. 2359; for MIC Prot. 2359: in vitro
Outline: as §1

[5] = test system: Pseudomonas aeruginosa K 799/61; conditions: for MIC: Pseudomonas aeruginosa, K799/61, read-out: MIC Pseu. 799; for MIC Pseu. 799: in vitro, agar dilution, DST agar
Outline: as §1

[6] = test system: Salmonella Typhimurium 277; conditions: in vitro; for MIC: Salmonella enterica, TYPHIMURIUM, read-out: MIC Salm. 277
Outline: as §1

[7] = test system: Staphylococcus aureus 10B; conditions: in vitro; for MIC: Staphylococcus aureus, 10B, read-out: MIC Staph. 10B
Outline: as §1

[8] = test system: Staphylococcus aureus 2999; conditions: for MIC: Staphylococcus aureus, 2999, in vitro, read-out: MIC Staph. 2999; for MIC Staph. 2999: in vitro
Outline: as §1

[9] = test system: Mycobacterium tuberculosis; conditions: Mycobacterium tuberculosis, in vitro, read-out: MIC Myc. tub.

Row | Compound | MIC [1] [µg/mL] | MIC [2] [µg/mL] | MIC [3] [µg/mL] | MIC [4] [µg/mL] | MIC [5] [µg/mL] | MIC [6] [µg/mL] | MIC [7] [µg/mL] | MIC [8] [ng/mL] | MIC Esch. 2018 [1] [µg/mL] | MIC Esch. 205 [2] [µg/mL] | MIC Prot. 1518 [3] [µg/mL] | MIC Prot. 2359 [4] [µg/mL] | MIC Pseu. 799 [5] [µg/mL] | MIC Salm. 277 [6] [µg/mL] | MIC Staph. 10B [7] [ng/mL] | MIC Staph. 2999 [8] [ng/mL] | MIC [9] [µg/mL]
1 | CCN(CCO)c1nc2c([nH]1)c1c(O)c3c(O)c(C)c4c(c32)C(=O)[C@@](C)(O/C=C/[C@H](OC)[C@@H](C)[C@@H](OC(C)=O)[C@H](C)[C@H](O)[C@H](C)[C@@H](O)[C@@H](C)/C=C/C=C(/C)C(=O)N1)O4 [Verbindung 14, 4-[N-Ethyl-N-(2-hydroxyethyl)-amino]-imidazolo[4,5-c]rifamycin SV] | 16 (≈ 19.8 µM) | 8 (≈ 9.89 µM) | 16 (≈ 19.8 µM) | 16 (≈ 19.8 µM) | 16 (≈ 19.8 µM) | 32 (≈ 39.6 µM) | 0.05 (≈ 0.0618 µM) | 10 (≈ 0.0124 µM) | – | – | – | – | – | – | – | – | –
2 | COC1C=COC2(C)Oc3c(C)c(O)c4c(O)c(c5nc(N(C)C6CCCC6)[nH]c5c4c3C2=O)NC(=O)C(C)=CC=CC(C)C(O)C(C)C(O)C(C)C(OC(C)=O)C1C (stereo not shown) [Verbindung 10, 4-(N-Cyclopentyl-N-methylamino)-imidazolo[4,5-c]rifamycin SV] | 4 (≈ 4.88 µM) | 4 (≈ 4.88 µM) | 4 (≈ 4.88 µM) | 4 (≈ 4.88 µM) | 8 (≈ 9.77 µM) | 16 (≈ 19.5 µM) | 0.005 (≈ 0.00611 µM) | 5 (≈ 0.00611 µM) | – | – | – | – | – | – | – | – | –
3 | 4-(N-Benzyl-N-methylamino)-imidazolo[4,5-c]rifamycin SV [Verbindung 12] | – | – | – | – | – | – | – | – | 8 | 8 | 1 | 8 | 8 | 32 | 1 | 1 | –
4 | CCN1CCN(c2nc3c4c(O)c5c(O)c(C)c6c(c5c3[nH]2)C(=O)[C@@](C)(O/C=C/[C@H](OC)[C@@H](C)[C@@H](OC(C)=O)[C@H](C)[C@H](O)[C@H](C)[C@@H](O)[C@@H](C)/C=C/C=C(/C)C(=O)N4)O6)CC1 [Verbindung 31, 4-(4-Ethylpiperazinyl)-imidazolo[4,5-c]rifamycin SV] | – | – | – | – | – | – | – | – | 8 (≈ 9.59 µM) | 8 (≈ 9.59 µM) | 8 (≈ 9.59 µM) | 8 (≈ 9.59 µM) | 8 (≈ 9.59 µM) | 32 (≈ 38.4 µM) | 2 (≈ 0.0024 µM) | 1 (≈ 0.0012 µM) | –
5 | CO[C@H]1/C=C/O[C@@]2(C)Oc3c(C)c(O)c4c(O)c(c5[nH]c(N6CCC(N(C)C)CC6)nc5c4c3C2=O)NC(=O)/C(C)=C\C=C\[C@H](C)[C@H](O)[C@@H](C)[C@@H](O)[C@@H](C)[C@H](OC(C)=O)[C@@H]1C [Verbindung 23, 4-(4-Dimethylamino-l-piperidyl)-imidazolo[4,5-c]rifamycin SV] | 8 (≈ 9.43 µM) | 16 (≈ 18.9 µM) | 16 (≈ 18.9 µM) | 16 (≈ 18.9 µM) | 16 (≈ 18.9 µM) | 16 (≈ 18.9 µM) | 0.1 (≈ 0.118 µM) | 100 (≈ 0.118 µM) | – | – | – | – | – | – | – | – | –
6 | COC1C=COC2(C)Oc3c(C)c(O)c4c(O)c(c5nc(N6CCN(CC7CCCCC7)CC6)[nH]c5c4c3C2=O)NC(=O)C(C)=CC=CC(C)C(O)C(C)C(O)C(C)C(OC(C)=O)C1C (stereo not shown) [Verbindung 5, 4-(4-Cyclohexylmethyl-piperazinyl)-imidazolo[4,5-c]rifamycin SV] | 4 (≈ 4.43 µM) | 4 (≈ 4.43 µM) | 8 (≈ 8.87 µM) | 16 (≈ 17.7 µM) | 16 (≈ 17.7 µM) | 8 (≈ 8.87 µM) | 0.005 (≈ 0.00554 µM) | 5 (≈ 0.00554 µM) | – | – | – | – | – | – | – | – | 1.9 (≈ 2.11 µM)
7 | CO[C@H]1/C=C/O[C@@]2(C)Oc3c(C)c(O)c4c(O)c(c5nc(N6CCN(CC7CCCC7)CC6)[nH]c5c4c3C2=O)NC(=O)/C(C)=C\C=C\[C@H](C)[C@H](O)[C@@H](C)[C@@H](O)[C@@H](C)[C@H](OC(C)=O)[C@@H]1C [Verbindung 55, 4-(4-Cyclopentylmethylpiperazinyl)-imidazolo[4,5-c]-rifamycin SV] | 1 (≈ 1.13 µM) | 8 (≈ 9.01 µM) | 2 (≈ 2.25 µM) | 2 (≈ 2.25 µM) | 32 (≈ 36 µM) | 32 (≈ 36 µM) | 0.01 (≈ 0.0113 µM) | 1 (≈ 0.00113 µM) | – | – | – | – | – | – | – | – | –
8 | 4-(4-Isobutyl-2,5-dimethyl-piperazinyl)-imidazolo[4,5-c]-rifamycin SV [Verbindung 76] | – | – | – | – | – | – | – | – | 8 | 32 | 8 | 8 | 32 | 32 | 10 | 10 | –
9 | CO[C@H]1/C=C/O[C@@]2(C)Oc3c(C)c(O)c4c(O)c(c5nc(N6CCCCCC6)[nH]c5c4c3C2=O)NC(=O)/C(C)=C\C=C\[C@H](C)[C@H](O)[C@@H](C)[C@@H](O)[C@@H](C)[C@H](OC(C)=O)[C@@H]1C [Verbindung 27, 4-(1-Perhydroazepinyl)-imidazolo[4,5-c]rifamycin SV] | – | – | – | – | – | – | – | – | 8 (≈ 9.77 µM) | 8 (≈ 9.77 µM) | 2 (≈ 2.44 µM) | 8 (≈ 9.77 µM) | 8 (≈ 9.77 µM) | 32 (≈ 39.1 µM) | 1 (≈ 0.00122 µM) | 1 (≈ 0.00122 µM) | –

Reference: EP0049683A2, “Imidazo-rifamycines, process for their preparation, pharmaceutical preparations containing them and their use” (CIBA-GEIGY AG, priority 1980, dated 1982)
